Laboratory results reported in patent US20250339389A1, “N-ARACHIDONOYL ETHANOLAMINE COMPOSITION AND USE THEREOF” (NANJING NUTRABUILDING BIO-TECH CO., LTD., priority 2023, published 2025).

Key:
[1] = test system: Bacteroides/Firmicutes; experiment: Relative abundance ratio of Bacteroides and Firmicutes in feces of high-fat diet mice (16S rDNA sequencing); assay type: in vivo; conditions: obese mice induced by high-fat diet, AEA 20 mg/kg once a day, four weeks
Procedure: (§1) After a week of adaptive feeding, mice were randomly divided into three groups according to sex and weight: group 1, normal group, n=10; group 2, high-fat diet group, n=10; and group 3, high-fat diet+AEA group, n=10. The normal group was given normal feed, while the high-fat diet group was given high-fat and high-sugar feed (containing 35% fat, 18% protein and 47% carbohydrate), and the high-fat diet+AEA group was given high-fat and high-sugar feed containing AEA (20 mg/kg), for four weeks. The specific gavage scheme is: calculate and gavage once a day according to the weight of mice, while the normal group gavage with the same amount of normal saline. Four samples of mouse feces were randomly taken from each group. The samples were first extracted for DNA, 16S rDNA was amplified by PCR, and then sequenced, and the relative abundance of each strain was analyzed.
Abundance ratio of Bacteroides and Firmicutes: Bacteroides is the representative of intestinal probiotics and Firmicutes is the representative of intestinal harmful bacteria. The higher the ratio, the healthier the intestinal flora is.

[2] = test system: Roseburia; experiment: Relative abundance of Roseburia in feces of high-fat diet mice (16S rDNA sequencing); assay type: in vivo; conditions: high-fat+AEA group, AEA 20 mg/kg once a day, four weeks
Procedure: as §1
(§2) FIG. 2 is a graph showing changes in the relative abundance of Roseburia. […] FIG. 3 is a graph showing changes in the relative abundance of Bacteroides. […] After AEA treatment, the level of Bacteroides in obese mice induced by high-fat diet increased by 20%. FIG. 4 is a graph showing changes in the relative abundance of Prevotella. […] After AEA treatment, the level of Prevotella in obese mice induced by high-fat diet increased by 25%. FIG. 5 is a graph showing changes in the relative abundance of Salmonella. […]

[3] = test system: Bacteroides; experiment: Relative abundance of Bacteroides in feces of high-fat diet mice (16S rDNA sequencing); assay type: in vivo; conditions: obese mice induced by high-fat diet, AEA 20 mg/kg once a day, four weeks
Procedure: as §1, §2

[4] = test system: Prevotella; experiment: Relative abundance of Prevotella in feces of high-fat diet mice (16S rDNA sequencing); assay type: in vivo; conditions: obese mice induced by high-fat diet, AEA 20 mg/kg once a day, four weeks
Procedure: as §1, §2

[5] = test system: Salmonella; experiment: Relative abundance of Salmonella in feces of high-fat diet mice (16S rDNA sequencing); assay type: in vivo; conditions: obese mice induced by high-fat diet, AEA 20 mg/kg once a day, four weeks
Procedure: as §1, §2

[6] = test system: Escherichia coli; experiment: Relative abundance of Escherichia coli in feces of high-fat diet mice (16S rDNA sequencing); assay type: in vivo; conditions: obese mice induced by high-fat diet, AEA 20 mg/kg once a day, four weeks
Procedure: as §1, §2

[7] = test system: acute colitis model; experiment: DSS-induced acute colitis model, disease activity index (DAI); assay type: in vivo, mice; conditions: 3% DSS for 9 days, AEA daily dose 2.5 mg/kg; model group close to 3
Text: Experimental method: Thirty 4-6-week-old mice, 15 males and 15 females, were selected for adaptive feeding for 7 days in advance. They were randomly divided into control group (CON), model group (DSS) and administration group (DSS+AEA), with 10 mice in each group. The model group and the administration group were gavaged with 3% dextran sodium sulfate (DSS) for 9 days to establish an acute colitis model, while the control group was gavaged with the same amount of normal saline every day. The weight, feces and rectal bleeding of mice were recorded every day, and the disease activity index (DAI) was used to evaluate the condition of colitis. The DAI value was obtained by adding all the scores and dividing them by three. Mice in the administration group were given AEA at a daily dose of 2.5 mg/kg. On the 10th day, blood was taken from the orbit of each mouse, and then it was killed. Colon tissues were collected, fixed in 4% paraformaldehyde solution and stored at −80° C. for subsequent analysis. The pathological damage of colon tissue was examined by hematoxylin-eosin staining and Alxin blue staining.

[8] = test system: mood and depressive behavior; experiment: Forced swimming test; assay type: in vivo, C57BL/6J mice; conditions: AEA 20 mg/kg/day
Procedure: (§3) Experimental materials: The experimental animals used in this experiment are male C57BL/6J mice, 6 weeks old, with an initial weight of 18-22 g and SPF grade. The feeding environment of the mice is room temperature of 22±1° C. and humidity of 55±10%, and the mice are fed with normal feed. Mice were randomly divided into blank control group and AEA group, with 10 mice in each group. The AEA group was given a dose of 20 mg/kg/day, while the blank control group was given distilled water of the same volume.
(§4) Experimental method: Tail suspension test and forced swimming test were used to evaluate mood and depressive behavior. Forced swimming test: put a single mouse into a beaker and keep the water temperature at (25±2)° C. The experiment lasted for 6 min, and the immobility time of mice within 4 min was calculated. Tail suspension test: a mouse was fixed at the back ⅓ of the tail end with adhesive tape and hung upside down on an iron bar, with its head 10 cm away from the bottom of the box. The experiment lasted for 6 min, and the immobility time of mice within 4 min was calculated.

[9] = test system: mood and depressive behavior; experiment: Tail suspension test; assay type: in vivo, C57BL/6J mice; conditions: AEA 20 mg/kg/day
Procedure: as §3, §4

[10] = test system: mechanical pain sensitivity; experiment: SNL model (L5 spinal nerve ligation), Von Frey mechanical pain sensitivity; assay type: in vivo, ICR mice
Procedure: Experimental material: The experimental animals used in this experiment are male ICR mice, with an initial weight of 30±2 g and SPF grade. The feeding environment of the mice is room temperature of 22±2° C., and the humidity is controlled at 70%-80%. Mice were free to drink water and eat, and fed with normal feed.
Experimental method: Preparation of animal model: Establishment of SNL model of ligation of the fifth spinal nerve on the left lumbar vertebra in mice: After the animals were anesthetized with isoflurane, the L5 transverse process on the left back was exposed, the L5 nerve was dissociated and ligated with No.6 ophthalmic thread, and the wound was treated with penicillin and then sutured. In Sham group, only L5 transverse process was exposed without nerve ligation. After the model was established, the behavior of mice was observed, and the individuals with impaired motor behavior were excluded. […] Grouping and administration: Mice were randomly divided into Sham group, model group and AEA group (20 mg/kg/day), with 8 mice in each group. The three groups were administered by gavage for 16 d, wherein the Sham group and model group were given the same volume of distilled water by gavage. Von Frey method was used to detect the mechanical pain sensitivity of mice: after administration, the mice were placed in an organic glass box in a quiet room to adapt for 1.5 h, so that the mice were in a resting state. Von Frey fibers were used to continuously stimulate the L5 nerve reflex area on the sole of the operated hind limb for 3˜4 s, and the test was conducted for 4 times, with an interval of 5 min each time, and the threshold of 50% mechanical foot retraction of the hind paw was recorded.

## CCCCC/C=C\C/C=C\C/C=C\C/C=C\CCCC(=O)NCCO [AEA, N-arachidonoyl ethanolamine]
[1]
  ratio of Bacteroides/Firmicutes: increased after AEA administration, which was close to the level of normal group
[2]
  level (relative abundance) of Roseburia: close to that in normal mice
[3]
  increase of level of Bacteroides after AEA treatment: 20%
[4]
  increase of level of Prevotella after AEA treatment: 25%
[5]
  decrease of Salmonella level after AEA treatment: 20%
[6]
  decrease of level of Escherichia coli after AEA treatment: 42%
[7]
  DAI score: about 2
[8]
  reduction of immobility time compared with the blank group, forced swimming test: 23%
[9]
  reduction of immobility time compared with the blank group, tail suspension test: 28%
[10]; administration 1 d, AEA 20 mg/kg/day by gavage, SNL model 0.005 ± 0.002
  threshold of 50% foot contraction: 0.010 ± 0.010
[10]; administration 6 d, AEA 20 mg/kg/day by gavage, SNL model 0.019 ± 0.008
  threshold of 50% foot contraction: 0.067 ± 0.013
[10]; administration 11 d, AEA 20 mg/kg/day by gavage, SNL model 0.018 ± 0.018
  threshold of 50% foot contraction: 0.133 ± 0.023
[10]; administration 16 d, AEA 20 mg/kg/day by gavage, SNL model 0.020 ± 0.018
  threshold of 50% foot contraction: 0.193 ± 0.002
[10]; after 6 days of administration, AEA 20 mg/kg/day by gavage
  threshold of 50% foot contraction compared with the SNL model (in words): increased significantly
[10]; before modeling (baseline)
  threshold of 50% foot contraction: 0.323 ± 0.040
